According to patent US12636290B2, “BET inhibitors for modulating DUX4 expression in FSHD” (Saint Louis University, priority 2018, dated 2026):
Where two headings read alike, the source gives them in different places.

System: DUX4 expression (surrogate marker MBD3L2)
Experiment: Screening: qPCR analysis of DUX4 target gene MBD3L2 in differentiating MB200 FSHD2 muscle cells
Type: cell-based
Details: Homo sapiens, 40 hours, DUX4 expression inferred from surrogate marker MBD3L2 expression (qPCR, normalized to RPL30)
Method: Cells and Cell Culture. Primary human myoblast cell lines, immortalized by retroviral transduction of cyclin-dependent kinase 4 (CDK4) and human telomerase reverse transcriptase (hTERT) (Stadler, et al., 2011), were obtained from the Fields Center at the University of Rochester (world-wide-web at urmc.rochester.edu/fields-center.aspx). Immortalized myoblasts were grown in Ham's F-10 Nutrient Mix (Gibco, Waltham, MA, USA) supplemented with 20% HyClone Fetal Bovine Serum (GE Healthcare Life Sciences, Pittsburgh, PA, USA), 100 U/100 μg penicillin/streptomycin (Gibco), 10 ng/ml recombinant human fibroblast growth factor (Promega Corporation, Madison, WI, USA) and 1 μM dexamethasone (Sigma-Aldrich). Differentiation of myoblasts into myotubes was achieved by switching the fully confluent myoblast monolayer into Dulbecco's Modified Eagle Medium (DMEM) (Gibco) containing 1% horse serum (Gibco), 100 U/100 μg penicillin/streptomycin, 10 μg/ml insulin (Sigma-Aldrich) and 10 μg/ml transferrin (Sigma-Aldrich) (HS/IT media) or DMEM:F12 Nutrient Mixture (1:1, Gibco) supplemented with 2% KnockOut Serum Replacement (Gibco), 100 U/100 μg penicillin/streptomycin, 10 μg/ml insulin and 10 μg/ml transferrin (KSR media) for 2-6 days.
Screening: qPCR analysis of DUX4 target genes MBD3L2. For screening compounds, differentiating MB200 FSHD2 muscle cells were exposed to BET inhibitors at a variety of concentrations for 40 hours to determine the effects of the drugs on DUX4 expression. Cell lysates were prepared using Cells-to-Ct Bulk Lysis Reagents (Invitrogen, Waltham, MA, USA). Gene expression was measured by quantitative polymerase chain reaction (qPCR) was carried out on a QuantStudio 5 (Applied Biosystems, Waltham, MA, USA) using TaqMan Gene Expression Assays (Applied Biosystems) and TaqMan Fast Virus 1-Step Master Mix (Invitrogen). The relative expression levels of DUX4 target gene methyl-CpG binding domain protein 3 like 2 (MBD3L2), was normalized to that of the reference gene ribosomal protein L30 (RPL30), which was included in multiplex (two gene) PCR reactions. TaqMan Gene Expression Assay ID numbers: MBD3L2, Hs00544743_m1; RPL30, Hs00265497_m1. Data is expressed as relative expression with the expression in absence of inhibitors set to one.
Analysis of MBD3L2 expression in cultured FSHD2 cells. DUX4 mRNA is present in very low levels, even in differentiating FSHD2 myoblasts, so DUX4 target gene MBD3L2 was used as a surrogate marker of DUX4 expression. FSHD2 patient derived muscle cells were analyzed to determine whether BET inhibitors affect MBD3L2 expression, indicating a reduction in DUX4 expression.

| SMILES | IC50 (read-out: DUX4* MT FSHD2: IC50) [nM] | IC50 (read-out: DUX4* MT FSHD2 IC50) [nM] |
| --- | --- | --- |
| C[C@@H]1C(=O)N(C)CCN1CCOc1ccc(-c2ccc3nc(-c4cn(C(F)F)c(=O)c5[nH]ccc45)ccc3c2)cc1 [SLU-2325, (R)-6-(difluoromethyl)-4-{6-[4-(2-(2,4-dimethyl-3-oxopiperazin-1-yl)ethoxy)phenyl]quinolin-2-yl}-1H-pyrrolo[2,3-c]pyridin-7(6H)-one] | 290 | 290 |
| C[C@@H]1C(=O)N(C)CCN1CCOc1ccc(-c2ccc3cc(-c4cn(C(F)F)c(=O)c5[nH]ccc45)ccc3n2)cc1 [SLU-2297, (R)-6-(difluoromethyl)-4-{2-[4-(2-(2,4-dimethyl-3-oxopiperazin-1-yl)ethoxy)phenyl]quinolin-6-yl}-1H-pyrrolo[2,3-c]pyridin-7(6H)-one] | 1600 | 1600 |
| COc1cc(N2CCC(c3ccc(OCCN4CCN(C)C(=O)[C@H]4C)cc3)CC2)ncc1-c1cn(C)c(=O)c2[nH]ccc12 [SLU-2111, (R)-4-{6-[4-(4-(2-(2,4-dimethyl-3-oxopiperazin-1-yl)ethoxy)phenyl)piperidin-1-yl]-4-methoxypyridin-3-yl}-6-methyl-1,6-dihydro-7H-pyrrolo[2,3-c]pyridin-7-one] | 29 | 29 |
| Cn1cc(-c2ccc(N3CCC4(CCN(C(=O)CO)CC4)C3)nc2)c2cc[nH]c2c1=O [SLU-2218, 4-{6-[8-(2-hydroxyacetyl)-2,8-diazaspiro[4.5]decan-2-yl]pyridin-3-yl}-6-methyl-1H-pyrrolo[2,3-c]pyridin-7(6H)-one] | 41 | 41 |
| CCn1cc(-c2ccc3nc(-c4ccc(OCCN5CCN(C)C(=O)[C@H]5C)cc4)ccc3c2)c2cc[nH]c2c1=O [SLU-2296, (R)-4-{2-[4-(2-(2,4-dimethyl-3-oxopiperazin-1-yl)ethoxy)phenyl]quinolin-6-yl}-6-ethyl-1H-pyrrolo[2,3-c]pyridin-7(6H)-one] | 58 | 58 |
| C[C@@H]1CCC[C@H](C)N1CCOc1ccc(-c2ccc3nc(-c4cn(C)c(=O)c5[nH]ccc45)ccc3c2)cc1 [SLU-2279, 4-{6-[4-(2-((2R,6S)-2,6-dimethylpiperidin-1-yl)ethoxy)phenyl]quinolin-2-yl}-6-methyl-1H-pyrrolo[2,3-c]pyridin-7(6H)-one] | 420 | 420 |
| C[C@@H]1C(=O)N(C)CCN1CCOc1ccc(-c2ccc3nc(-c4cn(C)c(=O)c5[nH]ccc45)ccc3c2)cn1 [SLU-2235, (R)-4-{6-[6-(2-(2,4-dimethyl-3-oxopiperazin-1-yl)ethoxy)pyridin-3-yl]quinolin-2-yl}-6-methyl-1H-pyrrolo[2,3-c]pyridin-7(6H)-one] | 12 | 12 |
| C[C@@H]1C(=O)N(C)CCCN1CCOc1ccc(-c2ccc3cc(-c4cn(C)c(=O)c5[nH]ccc45)ccc3n2)cc1 [SLU-2284, (R)-4-{2-[4-(2-(2,4-dimethyl-3-oxo-1,4-diazepan-1-yl)ethoxy)phenyl]quinolin-6-yl}-6-methyl-1H-pyrrolo[2,3-c]pyridin-7(6H)-one] | 90 | 90 |
| COc1cc(-c2ccc(OCCN3CCN(C)C(=O)[C@H]3C)cc2)ccc1-c1cn(C)c(=O)c2[nH]ccc12 [SLU-2102, (R)-4-{4′-[2-(2,4-dimethyl-3-oxopiperazin-1-yl)ethoxy]-3-methoxy-[1,1′-biphenyl]-4-yl}-6-methyl-1H-pyrrolo[2,3-c]pyridin-7(6H)-one] | 130 | 130 |
| C[C@@H]1C(=O)N(C)CCN1CCOc1ccc(N2CCN(c3ccc(-c4cn(C)c(=O)c5[nH]ccc45)cn3)CC2)nc1 [SLU-2110, (R)-4-{6-[4-(5-(2-(2,4-dimethyl-3-oxopiperazin-1-yl)ethoxy)pyridin-2-yl)piperazin-1-yl]pyridin-3-yl}-6-methyl-1H-pyrrolo[2,3-c]pyridin-7(6H)-one] | 16 | 16 |
| CC(=O)N1C[C@@H](C)N(CCOc2ccc(C3CCN(c4ccc(-c5cn(C)c(=O)c6[nH]ccc56)cn4)CC3)cc2)[C@@H](C)C1 [SLU-2090, 4-{6-[4-(4-(2-((2R,6S)-4-acetyl-2,6-dimethylpiperazin-1-yl)ethoxy)phenyl)piperidin-1-yl]pyridin-3-yl}-6-methyl-1H-pyrrolo[2,3-c]pyridin-7(6H)-one] | 43 | 43 |
| Cn1cc(-c2ccc(N3CCC4(CCN(C(=O)CO)C4)CC3)nc2)c2cc[nH]c2c1=O [SLU-2127] | 37 | 37 |
| C[C@@H]1C(=O)N(C)CCN1CCOc1ccc(-c2cc3ccc(-c4cn(C)c(=O)c5[nH]ccc45)cc3cn2)cc1 [SLU-2217, (R)-4-{3-[4-(2-(2,4-dimethyl-3-oxopiperazin-1-yl)ethoxy)phenyl]isoquinolin-7-yl}-6-methyl-1H-pyrrolo[2,3-c]pyridin-7(6H)-one] | 22 | 22 |
| C[C@@H]1C(=O)N(C)CCN1CCOCC(=O)N1CCC2(CC1)CCN(c1ccc(-c3cn(C)c(=O)c4[nH]ccc34)cn1)CC2 [SLU-2225, (R)-4-{6-[9-(2-(2-(2,4-dimethyl-3-oxopiperazin-1-yl)ethoxy)acetyl)-3,9-diazaspiro[5.5]undecan-3-yl]pyridin-3-yl}-6-methyl-1H-pyrrolo[2,3-c]pyridin-7(6H)-one] | 35 | 35 |
| CN1CCN(CCOc2ccc(-c3ccc4nc(-c5cn(C)c(=O)c6[nH]ccc56)ccc4c3)cc2)C(C)(C)C1=O [SLU-2280, 6-methyl-4-{6-[4-(2-(2,2,4-trimethyl-3-oxopiperazin-1-yl)ethoxy)phenyl]quinolin-2-yl}-1H-pyrrolo[2,3-c]pyridin-7(6H)-one] | 120 | 120 |
| Cn1cc(-c2ccc3cc(-c4ccc(OCCO)nc4)ccc3n2)c2cc[nH]c2c1=O [SLU-2232, 4-{6-[6-(2-hydroxyethoxy)pyridin-3-yl]quinolin-2-yl}-6-methyl-1H-pyrrolo[2,3-c]pyridin-7(6H)-one] | 97 | 97 |
| Cn1cc(-c2ccc(N3CCC(c4ccc(OCCN5CCCCC5)cc4)CC3)nc2)c2cc[nH]c2c1=O [SLU-2116, 6-methyl-4-{6-[4-(4-(2-(piperidin-1-yl)ethoxy)phenyl)piperidin-1-yl]pyridin-3-yl}-1H-pyrrolo[2,3-c]pyridin-7(6H)-one] | 270 | 270 |
| CN1CCN(CCOc2ccc(C3CCN(c4ccc(-c5cn(C)c(=O)c6[nH]ccc56)cn4)CC3)cc2)CC1=O [SLU-2131, 6-methyl-4-{6-[4-(4-(2-(4-methyl-3-oxopiperazin-1-yl)ethoxy)phenyl)piperidin-1-yl]pyridin-3-yl}-1H-pyrrolo[2,3-c]pyridin-7(6H)-one] | 62 | 62 |
| COc1cc(-c2ccc(OCCN3[C@H](C)CN(C(C)=O)C[C@@H]3C)cc2)ccc1-c1cn(C)c(=O)c2[nH]ccc12 [SLU-2098, 4-{4′-[2-((2R,6S)-4-acetyl-2,6-dimethylpiperazin-1-yl)ethoxy)-3-methoxy-[1,1′-biphenyl]-4-yl}-6-methyl-1H-pyrrolo[2,3-c]pyridin-7(6H)-one] | 310 | 310 |
| CC(=O)N1C[C@@H](C)N(CCOc2ccc(-c3ccc4nc(-c5cn(C)c(=O)c6[nH]ccc56)ccc4c3)cc2)[C@@H](C)C1 [SLU-2104, 4-{6-[4-(2-((2R,6S)-4-acetyl-2,6-dimethylpiperazin-1-yl)ethoxy)phenyl]quinolin-2-yl}-6-methyl-1H-pyrrolo[2,3-c]pyridin-7(6H)-one] | 43 | 43 |
| CN1CCCN(CCOc2ccc(-c3ccc4cc(-c5cn(C)c(=O)c6[nH]ccc56)ccc4n3)cc2)CC1=O [SLU-2300, 6-methyl-4-{2-[4-(2-(4-methyl-3-oxo-1,4-diazepan-1-yl)ethoxy)phenyl]quinolin-6-yl}-1H-pyrrolo[2,3-c]pyridin-7(6H)-one] | 49 | 49 |
| CC(C)CCOc1ccc(C2CCN(c3ccc(-c4cn(C)c(=O)c5[nH]ccc45)cn3)CC2)cc1 [SLU-2124, 4-{6-[4-(4-(isopentyloxy)phenyl)piperidin-1-yl]pyridin-3-yl}-6-methyl-1H-pyrrolo[2,3-c]pyridin-7(6H)-one] | 1300 | 1300 |
